Assay results from ChEMBL document CHEMBL1150997, “Novel compound stimulates amylase induction in barley seeds” (Bioorg Med Chem Lett, 1994).

How the values were obtained:
Format in all cases: functional
[1] = tested on: Hordeum vulgare subsp. vulgare; test: Amylase induction activity in barley aleurone layer at 0.01 uM
[2] = tested on: Hordeum vulgare subsp. vulgare; test: Amylase induction activity in barley aleurone layer at 0.1 uM
[3] = tested on: Hordeum vulgare subsp. vulgare; test: Amylase induction activity in barley aleurone layer at 1 uM

CC1=C(C(=O)O)[C@H]2[C@@H](C(C)C)CC[C@]1(C)[C@H]2CO
Activity [1]: 0 | Activity [2]: 1 | Activity [3]: 4
